Experimental data: ChEMBL document CHEMBL4190189, “Exploring Jolkinol D Derivatives To Overcome Multidrug Resistance in Cancer” (J Nat Prod, 2017)
The source made the active and inactive calls. The calls are words filed in the database; no cut-off is given here.

Experiments:
[1] = molecular target: T1, ATP-dependent translocase ABCB1 (Homo sapiens, UniProt P08183); assay: Activation of human ABCB1 ATPase activity expressed in Sf9 insect cell membranes assessed as increase in vanadate-sensitive basal ATPase activity at 0.78 to 100 uM measured after 10 mins by colorimetric method relative to control
T1 sequence (P08183 whole entry): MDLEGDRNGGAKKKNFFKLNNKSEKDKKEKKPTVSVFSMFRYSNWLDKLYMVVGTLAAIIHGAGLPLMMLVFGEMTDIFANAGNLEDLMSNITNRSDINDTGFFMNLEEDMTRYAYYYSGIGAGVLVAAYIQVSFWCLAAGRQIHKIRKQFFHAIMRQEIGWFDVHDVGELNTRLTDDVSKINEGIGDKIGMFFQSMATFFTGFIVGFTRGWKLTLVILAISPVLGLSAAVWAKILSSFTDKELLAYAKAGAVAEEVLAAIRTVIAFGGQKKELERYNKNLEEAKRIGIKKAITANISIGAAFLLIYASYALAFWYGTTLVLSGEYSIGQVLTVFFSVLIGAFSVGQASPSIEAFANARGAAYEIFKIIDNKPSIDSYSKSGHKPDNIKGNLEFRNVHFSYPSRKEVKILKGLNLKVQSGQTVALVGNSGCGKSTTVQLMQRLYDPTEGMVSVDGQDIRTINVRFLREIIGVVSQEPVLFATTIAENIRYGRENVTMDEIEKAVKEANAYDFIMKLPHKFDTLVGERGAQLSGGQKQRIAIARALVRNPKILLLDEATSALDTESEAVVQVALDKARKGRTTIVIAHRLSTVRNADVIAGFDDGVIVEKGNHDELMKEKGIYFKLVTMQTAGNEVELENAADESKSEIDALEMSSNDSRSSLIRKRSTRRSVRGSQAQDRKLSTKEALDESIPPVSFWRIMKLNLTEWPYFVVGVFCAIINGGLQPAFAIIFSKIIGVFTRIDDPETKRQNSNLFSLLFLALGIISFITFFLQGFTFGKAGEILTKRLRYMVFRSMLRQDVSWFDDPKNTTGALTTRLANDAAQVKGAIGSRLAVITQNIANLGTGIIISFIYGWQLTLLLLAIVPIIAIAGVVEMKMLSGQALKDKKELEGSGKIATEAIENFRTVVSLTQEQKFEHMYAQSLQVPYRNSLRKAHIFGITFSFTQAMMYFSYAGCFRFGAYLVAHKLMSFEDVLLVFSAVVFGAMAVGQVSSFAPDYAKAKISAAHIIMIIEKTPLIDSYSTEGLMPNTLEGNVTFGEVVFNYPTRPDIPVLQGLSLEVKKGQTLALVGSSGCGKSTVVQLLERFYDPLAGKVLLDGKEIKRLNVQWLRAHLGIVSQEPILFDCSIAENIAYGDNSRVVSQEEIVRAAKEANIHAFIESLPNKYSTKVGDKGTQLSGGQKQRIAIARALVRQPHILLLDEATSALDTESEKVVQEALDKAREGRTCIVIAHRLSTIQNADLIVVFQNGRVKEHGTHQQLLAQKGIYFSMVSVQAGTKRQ

[2] = molecular target: T2, ABCB1 (P-glycoprotein) ATPase (Homo sapiens, UniProt P08183); assay: Inhibition of human ABCB1 ATPase activity expressed in Sf9 insect cell membranes assessed as reduction in verapamil-stimulated vanadate-sensitive ATPase activity at 3.13 to […] uM measured after 10 mins by colorimetric method relative to control; settings: Sf9 insect cell membranes expressing human ABCB1, probe verapamil (ATPase stimulator)
T2 sequence (P08183 whole entry): as above

[3] = molecular target: T2, ABCB1 (P-glycoprotein) ATPase; assay: Inhibition of human ABCB1 ATPase activity expressed in Sf9 insect cell membranes assessed as reduction in verapamil-stimulated vanadate-sensitive ATPase activity at 25 to 100 uM measured after 10 mins by colorimetric method relative to control; settings: Sf9 insect cell membranes expressing human ABCB1, probe verapamil (ATPase stimulator)
L5178Y [4] = assay: Cytotoxicity against mouse L5178Y cells assessed as reduction in cell viability after 72 hrs by MTT assay; assay type: cell-based
L5178Y [5] = assay: Cytotoxicity against mouse L5178Y cells transfected with human ABCB1 assessed as reduction in cell viability after 72 hrs by MTT assay; assay type: functional, cell-based
[6] = molecular target: T1, ATP-dependent translocase ABCB1; assay: Modulation of human ABCB1 expressed in mouse L5178Y cells assessed as fluorescence activity ratio at 2 uM pretreated for 10 mins followed by rhodamine-123 addition measured after 20 mins by flow cytometry (reference value: 0.87); assay type: cell-based
[7] = molecular target: T1, ATP-dependent translocase ABCB1; assay: Modulation of human ABCB1 expressed in mouse L5178Y cells assessed as fluorescence activity ratio at 20 uM pretreated for 10 mins followed by rhodamine-123 addition measured after 20 mins by flow cytometry (reference value: 0.87); assay type: cell-based
[8] = Resistance ratio of IC50 for human EPP85-181P cells to IC50 for human EPP85-181RNOV cells; assay type: functional
[9] = Resistance ratio of IC50 for human EPP85-181P cells to IC50 for human EPP85-181RDB cells; assay type: functional
[10] = molecular target: T1, ATP-dependent translocase ABCB1; assay: Inhibition of human ABCB1 expressed in mouse L5178Y cells assessed as potentiation of doxorubicin-induced cytotoxicity by measuring combination index at 50:1 compound to doxorubicin ratio after 48 hrs by MTT assay; assay type: cell-based
[11] = Cytotoxicity against human EPG85-257RNOV cells assessed as reduction in cell viability after 5 days by SRB assay; assay type: functional, cell-based; settings: 120 h
[12] = molecular target: T1, ATP-dependent translocase ABCB1; assay: Inhibition of human ABCB1 expressed in mouse L5178Y cells assessed as potentiation of doxorubicin-induced cytotoxicity by measuring combination index at 200:1 compound to doxorubicin ratio after 48 hrs by MTT assay; assay type: cell-based
[13] = Resistance ratio of IC50 for human EPG85-257P cells to IC50 for human EPG85-257RNOV cells; assay type: functional
[14] = Resistance ratio of IC50 for human EPG85-257P cells to IC50 for human EPG85-257RDB cells; assay type: functional
[15] = molecular target: T1, ATP-dependent translocase ABCB1; assay: Inhibition of human ABCB1 expressed in mouse L5178Y cells assessed as potentiation of doxorubicin-induced cytotoxicity by measuring combination index at 5:1 compound to doxorubicin ratio after 48 hrs by MTT assay; assay type: cell-based
[16] = molecular target: T1, ATP-dependent translocase ABCB1; assay: Inhibition of human ABCB1 expressed in mouse L5178Y cells assessed as potentiation of doxorubicin-induced cytotoxicity by measuring combination index at 400:1 compound to doxorubicin ratio after 48 hrs by MTT assay; assay type: cell-based
[17] = molecular target: T1, ATP-dependent translocase ABCB1; assay: Inhibition of human ABCB1 expressed in mouse L5178Y cells assessed as potentiation of doxorubicin-induced cytotoxicity by measuring combination index at 18:1 compound to doxorubicin ratio after 48 hrs by MTT assay; assay type: cell-based
[18] = Cytotoxicity against human EPG85-257P cells assessed as reduction in cell viability after 5 days by SRB assay; assay type: cell-based; settings: 120 h
[19] = Cytotoxicity against human EPG85-257RDB cells assessed as reduction in cell viability after 5 days by SRB assay; assay type: functional, cell-based; settings: 120 h
[20] = Induction of apoptosis in human EPG85-257P cells at 30 uM after 72 hrs by annexin-V/propidium iodide staining based flow cytometric method relative to control; assay type: cell-based
Homo sapiens [21] = species on record: Homo sapiens; assay: (§1) Induction of apoptosis in human EPG85-257RDB cells at 30 uM after 72 hrs by annexin-V/propidium iodide staining based flow cytometric method relative to control; assay type: functional
[22] = Induction of apoptosis in human EPG85-257P cells assessed as caspase-3 activation at 30 uM after 72 hrs by flow cytometric method relative to control; assay type: cell-based
Homo sapiens [23] = species on record: Homo sapiens; assay: (§2) Induction of apoptosis in human EPG85-257RDB cells assessed as caspase-3 activation at 30 uM after 72 hrs by flow cytometric method relative to control; assay type: functional
Homo sapiens [24] = species on record: Homo sapiens; assay: (§3) Induction of apoptosis in human EPG85-257RNOV cells assessed as caspase-3 activation at 30 uM after 72 hrs by flow cytometric method relative to control; assay type: functional
Homo sapiens [25] = species on record: Homo sapiens; assay: (§4) Induction of apoptosis in human EPG85-257RNOV cells at 30 uM after 72 hrs by annexin-V/propidium iodide staining based flow cytometric method relative to control; assay type: functional
[26] = as §1; assay type: functional
[27] = as §2; assay type: functional
[28] = as §3; assay type: functional
[29] = Induction of apoptosis in human EPP85-181RNOV cells at 30 uM after 72 hrs by annexin-V/propidium iodide staining based flow cytometric method relative to control; assay type: functional
[30] = Induction of apoptosis in human EPP85-181RDB cells at 30 uM after 72 hrs by annexin-V/propidium iodide staining based flow cytometric method relative to control; assay type: functional
[31] = Induction of apoptosis in human EPP85-181RNOV cells assessed as caspase-3 activation at 30 uM after 72 hrs by flow cytometric method relative to control; assay type: functional
[32] = as §4; assay type: functional
[33] = molecular target: T1, ATP-dependent translocase ABCB1; assay: Inhibition of human ABCB1 expressed in mouse L5178Y cells assessed as potentiation of doxorubicin-induced cytotoxicity by measuring combination index at 10:1 compound to doxorubicin ratio after 48 hrs by MTT assay; assay type: cell-based
[34] = molecular target: T1, ATP-dependent translocase ABCB1; assay: Inhibition of human ABCB1 ATPase activity expressed in Sf9 insect cell membranes assessed as reduction in verapamil-stimulated vanadate-sensitive ATPase activity at 50 to 100 uM measured after 10 mins by colorimetric method
[35] = molecular target: T2, ABCB1 (P-glycoprotein) ATPase; assay: Inhibition of human ABCB1 ATPase activity expressed in Sf9 insect cell membranes assessed as reduction in verapamil-stimulated vanadate-sensitive ATPase activity at 1.56 to 25 uM measured after 10 mins by colorimetric method relative to control; settings: Sf9 insect cell membranes expressing human ABCB1, probe verapamil (ATPase stimulator)
[36] = molecular target: T1, ATP-dependent translocase ABCB1; assay: Inhibition of human ABCB1 expressed in mouse L5178Y cells assessed as potentiation of doxorubicin-induced cytotoxicity by measuring combination index at 100:1 compound to doxorubicin ratio after 48 hrs by MTT assay; assay type: cell-based
[37] = molecular target: T1, ATP-dependent translocase ABCB1; assay: Inhibition of human ABCB1 expressed in mouse L5178Y cells assessed as potentiation of doxorubicin-induced cytotoxicity by measuring combination index at 15:1 compound to doxorubicin ratio after 48 hrs by MTT assay; assay type: cell-based
[38] = Cytotoxicity against human EPP85-181P cells assessed as reduction in cell viability after 5 days by SRB assay; assay type: cell-based; settings: 120 h
[39] = Cytotoxicity against human EPP85-181RNOV cells assessed as reduction in cell viability after 5 days by SRB assay; assay type: functional, cell-based; settings: 120 h
[40] = Cytotoxicity against human EPP85-181RDB cells assessed as reduction in cell viability after 5 days by SRB assay; assay type: functional, cell-based; settings: 120 h
[41] = molecular target: T1, ATP-dependent translocase ABCB1; assay: Inhibition of human ABCB1 expressed in mouse L5178Y cells assessed as potentiation of doxorubicin-induced cytotoxicity by measuring combination index at 25:1 compound to doxorubicin ratio after 48 hrs by MTT assay; assay type: cell-based

Structure (SMILES)	IC50 (L5178Y [4]) [µM]	IC50 (L5178Y [5]) [µM]	Ratio [6]	Ratio [7]	IC50 [11] [µM]	Ratio IC50 [14]	also measured
CC(=O)O[C@]12C[C@H](C)[C@H](O)[C@@H]1/C=C(\C)CC[C@H]1[C@@H](/C=C(\C)C2=O)C1(C)C [JOLKINOL D]	–	–	–	–	–	–	Activity [1]: 66 to 87%; inhibition at 10 min [2]: 14 to 40%; inhibition at 10 min [3]: 9 to 33%
C/C1=C/[C@H]2[C@@H](OC(=O)c3ccc(-c4ccccc4)cc3)[C@@H](C)C[C@]2(O)C(=O)/C(C)=C/[C@@H]2[C@H](CC1)C2(C)C	> 19	> 80	4.8	19	–	–	Ratio IC50 [8]: 0.4; Ratio IC50 [9]: 0.4
COc1cccc(C(=O)O[C@H]2[C@@H](C)C[C@]3(O)C(=O)/C(C)=C/[C@@H]4[C@H](CC/C(C)=C\[C@@H]23)C4(C)C)c1	> 19	> 19	12	32.8	–	–	CI [10]: 0.38
CC(=O)O[C@]12C[C@H](C)[C@H](OC(=O)c3cccc(C)c3)[C@@H]1/C=C(/C)CC[C@H]1[C@@H](/C=C(\C)C2=O)C1(C)C	> 19	> 80	2.2	18	< 10	–	–
C/C1=C/[C@H]2[C@@H](OC(=O)c3ccc4ccccc4c3)[C@@H](C)C[C@]2(O)C(=O)/C(C)=C/[C@@H]2[C@H](CC1)C2(C)C	> 19	> 19	8.3	16.7	< 10	0.3	CI [12]: 0.2; Ratio IC50 [13]: 0.4; Ratio IC50 [9]: 0.3
CCOC(=O)O[C@H]1[C@@H](C)C[C@]2(OC(C)=O)C(=O)/C(C)=C/[C@@H]3[C@H](CC/C(C)=C\[C@@H]12)C3(C)C	> 19	> 19	3.1	18.7	< 10	0.4	CI [15]: 1.22
CC(=O)O[C@]12C[C@H](C)[C@H](OC(=O)c3ccc4ccccc4c3)[C@@H]1/C=C(/C)CC[C@H]1[C@@H](/C=C(\C)C2=O)C1(C)C	> 19	> 19	11.9	31.9	–	–	CI [16]: 0.06
CC(=O)O[C@]12C[C@H](C)[C@H](OC(=O)Oc3ccccc3)[C@@H]1/C=C(/C)CC[C@H]1[C@@H](/C=C(\C)C2=O)C1(C)C	> 19	> 19	10.8	19.5	5.55	0.4	CI [17]: 0.5; IC50 [18]: 6.24 µM; IC50 [19]: 2.34 µM; Activity [20]: Toxic; Activity (Homo sapiens [21]): Active; Activity ([22]; 72 h, 30 µM): Toxic; Activity (Homo sapiens [23]): Active; Activity (Homo sapiens [24]): Active; Activity (Homo sapiens [25]): Active
CC(=O)O[C@]12C[C@H](C)[C@H](OC(=O)c3ccc(C(F)(F)F)cc3)[C@@H]1/C=C(/C)CC[C@H]1[C@@H](/C=C(\C)C2=O)C1(C)C	> 19	> 80	9.4	25.4	< 10	0.4	Ratio IC50 [13]: 0.2
CC(=O)O[C@]12C[C@H](C)[C@H](OC(=O)c3cccc(C(F)(F)F)c3)[C@@H]1/C=C(/C)CC[C@H]1[C@@H](/C=C(\C)C2=O)C1(C)C	–	–	–	–	–	–	fold change (FC) [20]: 4; fold change (FC) [26]: 6; fold induction at 72 h, 30 µM ([22]; EPG85-257P cells, read-out: FC): 6 to 9; fold change (FC) [27]: 6 - 9; fold change (FC) [28]: 6 - 9; fold change (FC) [29]: 4.5; fold change (FC) [30]: 3.5; fold change (FC) [31]: 12; fold change (FC) [32]: 4
CC(=O)O[C@]12C[C@H](C)[C@H](OC(=O)/C=C/c3ccccc3)[C@@H]1/C=C(/C)CC[C@H]1[C@@H](/C=C(\C)C2=O)C1(C)C	> 19	> 19	28.6	41.5	–	0.2	CI [10]: 1.13
COc1ccccc1C(=O)O[C@H]1[C@@H](C)C[C@]2(OC(C)=O)C(=O)/C(C)=C/[C@@H]3[C@H](CC/C(C)=C\[C@@H]12)C3(C)C	> 19	> 19	33.3	39.6	–	0.2	CI [33]: 0.09; inhibition (INH) [34]: Active; inhibition at 10 min [35]: 100%
CC(=O)O[C@]12C[C@H](C)[C@H](OC(=O)c3ccc(-c4ccccc4)cc3)[C@@H]1/C=C(/C)CC[C@H]1[C@@H](/C=C(\C)C2=O)C1(C)C	> 19	> 19	11.6	37.2	–	–	CI [36]: 0.32; Ratio IC50 [13]: 0.2
CC(=O)O[C@]12C[C@H](C)[C@H](OC(=O)C34CC5CC(CC(C5)C3)C4)[C@@H]1/C=C(/C)CC[C@H]1[C@@H](/C=C(\C)C2=O)C1(C)C	> 19	> 19	12.6	29	< 10	–	CI [37]: 1.11; IC50 [38]: 8.61 µM; IC50 [39]: 6.63 µM; IC50 [40]: 5.86 µM; fold change (FC) [29]: 5; fold change (FC) [30]: 17
COc1cccc(C(=O)O[C@H]2[C@@H](C)C[C@]3(OC(C)=O)C(=O)/C(C)=C/[C@@H]4[C@H](CC/C(C)=C\[C@@H]23)C4(C)C)c1	> 19	> 19	26.1	36.4	–	0.3	CI [41]: 0.84
C/C1=C/[C@H]2[C@@H](OC(=O)c3ccc(C(F)(F)F)cc3)[C@@H](C)C[C@]2(O)C(=O)/C(C)=C/[C@@H]2[C@H](CC1)C2(C)C	> 19	> 80	3	9.9	–	–	Ratio IC50 [9]: 0.4
